Laboratory results taken from patent publication US6514997B2, “Antipicornaviral compounds and compositions, their pharmaceutical uses, and materials for their synthesis” (Agouron Pharmaceuticals, Inc., priority 1999, dated 2003).
Where two headings read alike, the source gives them in different places.

How the values were obtained:
H1-HeLa cells = test: Cytotoxicity (CC50) in mock-infected H1-HeLa cells, XTT dye reduction; assay type: cell-based, human
Description: (§1) In this cell protection assay, the ability of compounds to protect cells against HRV infection was measured by the XTT dye reduction method, which is described in Weislow et al., J. Natl. Cancer Inst. […] H1-HeLa cells were infected with HRV-14 at a multiplicity of infection (m.o.i.) of 0.13 (virus particles/cell) or mock-infected with medium only. Infected or mock-infected cells were resuspended at 8×10^5 cells per mL, and incubated with appropriate concentrations of the compounds to be tested. Two days later, XTT/PMS was added to test plates and the amount of formazan produced was quantified spectrophotometrically at 450/650 nm. […] The therapeutic index (TI) was calculated by dividing the CC50 value by the EC50 value.
(§2) All strains of human rhinovirus (HRV) for use in this assay were purchased from American Type Culture Collection (ATCC), except for HRV serotype-14 (produced from the infectious cDNA clone constructed by Dr. Robert Rueckert, Institute for Molecular Virology, University of Wisconsin, Madison, Wis.). HRV stocks were propagated and viral assays were performed in H1-HeLa cells (ATCC). Cells were grown in minimal essential medium with 10% fetal bovine serum, available from Life Technologies (Gaithersburg, Md.).
(§3) Coxsackievirus types A-21 (CAV-21) and B3 (CVB3) were purchased from American Type Culture Collection (ATCC, Rockville, Md.). Virus stocks were propagated and antiviral assays were performed in H1-HeLa cells (ATCC). Cells were grown in minimal essential medium with 10% fetal bovine serum (Life Technologies, Gaithersburg, Md.). The ability of the compounds of this invention to protect cells against either CAV-21 or CVB3 infection was measured by the XTT dye reduction method. This method is described in Weislow et al., J. Natl. Cancer Inst. […] H1-HeLa cells were infected with CAV-21 or CVB3 at a multiplicity of infection (m.o.i.) of 0.025 or 0.075, respectively, or mock-infected with medium only. H1-HeLa cells were plated at 4×10^4 cells per well in a 96-well plate and incubated with appropriate concentrations of the test compound. One day (CVB3) or two days (CAV-21) later, XTT/PMS was added to test plates and the amount of formazan produced was quantified spectrophotometrically at 450/650 nm. […] The therapeutic index (TI) was calculated by dividing the CC50 by the EC50.

[1] = as above; assay type: cell-based, human; conditions: human, H1-HeLa cells, mock-infected; line of HRV-14
Description: as §1, §2, §3

[2] = test system: strains of human rhinovirus (HRV); test: Antirhinoviral H1-HeLa cell culture assay (XTT cell protection, EC50), other HRV strains; assay type: cell-based, human rhinovirus in H1-HeLa cells; conditions: read-out: EC50
Description: (§4) Antirhinoviral H1-HeLa Cell Culture Assay:
In this cell protection assay, the ability of compounds to protect cells against HRV infection was measured by the XTT dye reduction method, which is described in Weislow et al., J. Natl. Cancer Inst. (1989), vol. 81, 577-586. H1-HeLa cells were infected with HRV-14 at a multiplicity of infection (m.o.i.) of 0.13 (virus particles/cell) or mock-infected with medium only. Infected or mock-infected cells were resuspended at 8×10^5 cells per mL, and incubated with appropriate concentrations of the compounds to be tested. Two days later, XTT/PMS was added to test plates and the amount of formazan produced was quantified spectrophotometrically at 450/650 nm. […] The therapeutic index (TI) was calculated by dividing the CC50 value by the EC50 value.
as §2

[3] = target: T1, Recombinant rhinovirus 3C protease, serotype 14 (Human rhinovirus 14, UniProt P03303); test: Inhibition of rhinovirus 3C protease (FRET assay, kobs/[I]), serotype 14; assay type: biochemical; conditions: pH 7.6; HRV-14; read-out: kobs/[I] (3C protease inhibition activity)
T1 construct: Recombinant rhinovirus 3C proteases; made in house
Description: Inhibition of Rhinovirus 3C Protease:
Stock solutions (50 mM, in DMSO) of various compounds were prepared; dilutions were in the same solvent. Recombinant rhinovirus 3C proteases (see Birch et al., “Purification of recombinant human rhinovirus 14 3C protease expressed in Escherichia coli,” Protein Expr. Pur. (1995), vol. 6(5), 609-618) from serotypes 14, 16, and 2 were prepared by the following standard chromatographic procedures: (1) ion exchange using Q Sepharose Fast Flow from Pharmacia; (2) affinity chromatography using Affi-Gel Blue from Biorad; and (3) sizing using Sephadex G-100 from Pharmacia. Each assay sample contained 2% DMSO, 50 mM tris pH 7.6, 1 mM EDTA, a test compound at the indicated concentration, approximately 1 μM substrate, and 50-100 nM protease. The kobs/I values were obtained from reactions initiated by addition of enzyme rather than substrate. RVP activity was measured in the fluorescence resonance energy transfer assay. The substrate was (N-terminal) DABCYL-([…]-EDANS. In the uncleaved peptide, the EDANS fluorescence was quenched by the proximal DABCYL moiety. When the peptide was cleaved, the quenching was relieved, and activity was measured as an increase in fluorescence signal. The tabulated data in the column designated kobs/[I] were measured from progress curves in enzyme start experiments.

HRV-14 = test: Antirhinoviral H1-HeLa cell culture assay (XTT cell protection, EC50), HRV-14; assay type: cell-based, human rhinovirus (HRV) serotype-14 in H1-HeLa cells; conditions: Rhinovirus B, HRV14, H1-HeLa
Description: as §4, §1, §2

[4] = Human rhinovirus sp., HRV10, H1-HeLa, HRV-10

T1 sequence (P03303 1538-1719): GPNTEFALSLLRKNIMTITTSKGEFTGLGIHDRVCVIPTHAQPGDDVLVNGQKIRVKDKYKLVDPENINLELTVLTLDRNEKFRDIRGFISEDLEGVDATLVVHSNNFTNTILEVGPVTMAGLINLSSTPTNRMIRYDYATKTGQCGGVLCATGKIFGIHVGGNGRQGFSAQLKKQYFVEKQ

| EC50 (HRV-14; HRV-14, read-out: EC50) [nM] | Compound | CC50 (H1-HeLa cells; line of HRV-1A) [µM] | CC50 (H1-HeLa cells; line of HRV-10) [µM] | CC50 at 2 days [1] [µM] | EC50 ([2]; H1-HeLa, HRV-1A) [nM] | EC50 [2, 4] [nM] | kinact/KI [3] [M⁻¹ s⁻¹] | EC50 (HRV-14) [nM] | also measured |
| --- | --- | --- | --- | --- | --- | --- | --- | --- | --- |
| 104 | CCOC(=O)/C=C/[C@H](CCC(N)=O)NC(=O)[C@H](Cc1ccccc1)n1cccc(NC(=O)C2SCCS2)c1=O [Compound 10, trans-(2′S,4S)-6-Carbamoyl-4-(2′-{3″-[([1′″,3′″]dithiolane-2′″-carbonyl)amino]-2″-oxo-2″H-pyridin-1″-yl}-3′-phenylpropionylamino)hex-2-enoic Acid Ethyl Ester] | > 10 | > 10 | > 10 | 1180 | 1410 | 113000 |  |  |
|  | CCOC(=O)/C=C/[C@H](C[C@H]1CCNC1=O)NC(=O)[C@H](Cc1ccccc1)n1cccc(NC(=O)OCc2ccccc2)c1=O [Compound 21, trans-(2′S,3′″R,4S)-4-[2′-(3″-Benzyloxycarbonylamino-2″-oxo-2″H-pyridin-1″-yl)-3′-phenylpropionylamino]-5-(2′″-oxopyrrolidin-3′″-yl)pent-2-enoic Acid Ethyl Ester] |  |  | > 10 |  |  | 6340 | 469 |  |
|  | CCOC(=O)/C=C/[C@H](C[C@@H]1CCNC1=O)NC(=O)Cn1cccc(NC(=O)c2cc(C)on2)c1=O [Compound 22, trans-(4S,3″″S)-4-(2′-{3″-[(5′″-Methylisoxazole-3′″-carbonyl)amino]-2″-oxo-2″H-pyridin-1″-yl}acetylamino)-5-(2″″-oxopyrrilidin-3″″-yl)pent-2-enoic Acid Ethyl Ester] |  |  | > 10 |  |  | 18500 | 1000 |  |
| 64 | O=C1OCC/C1=C\[C@H](C[C@@H]1CCNC1=O)NC(=O)[C@H](Cc1ccc(F)cc1)n1cccc(NC(=O)c2cc(Cl)on2)c1=O [Compound 23, trans-(2″S,2″S,3″″″S)-5-Chloroisoxazole-3-carboxylic Acid (1′-{2″-(4′″-fluorophenyl)-1″-[2″″-(2′″″-oxodihydrofuran-3′″″-ylidene)-1″″-(2″″″-oxopyrrolidin-3″″″-ylmethyl)ethylcarbamoyl]ethyl}-2′-oxo-1′,2′′-dihydropyridin-3′-yl)amide] |  |  | > 10 |  |  | 385000 |  |  |
|  | CCOC(=O)/C=C/[C@H](C[C@@H]1CCNC1=O)NC(=O)[C@H](Cc1ccc(F)cc1)n1cccc(NC(=O)c2cc(C)on2)c1=O [Compound 25, trans-(2′S,3′″″S,4S)-4-(3′-(4″-Fluorophenyl)-2′-{3′″-[(5″″-methylisoxazole-3″″-carbonyl)amino]-2′-oxo-2′″H-pyridin-1′″-yl}propionylamino)-5-(2′″″-oxopyrrolidin-3′″″-yl)pent-2-enoic Acid Ethyl Ester] | > 10 | > 10 | > 10 | 15 | 4 | 1.25e+06 | 2 | CC50 (H1-HeLa cells; line of HRV-2): > 10 µM; CC50 (H1-HeLa cells; line of HRV-3): > 10 µM; CC50 (H1-HeLa cells; line of HRV-9): > 10 µM; CC50 (H1-HeLa cells; line of HRV-16): > 10 µM; CC50 (H1-HeLa cells; line of HRV-25): > 10 µM; CC50 (H1-HeLa cells; line of HRV-39): > 10 µM; CC50 (H1-HeLa cells; line of HRV-87): > 10 µM; EC50 ([2]; H1-HeLa, HRV-2): 4 nM; EC50 ([2]; Human rhinovirus sp., HRV3, H1-HeLa, HRV-3): 4 nM; EC50 ([2]; Human rhinovirus sp., HRV9, H1-HeLa, HRV-9): 10 nM; EC50 ([2]; Human rhinovirus sp., HRV16, H1-HeLa, HRV-16): 5 nM; EC50 ([2]; Human rhinovirus sp., HRV25, H1-HeLa, HRV-25): 22 nM; EC50 ([2]; Human rhinovirus sp., HRV39, H1-HeLa, HRV-39): 9 nM; EC50 ([2]; Human rhinovirus sp., HRV87, H1-HeLa, HRV-87): 8 nM |
|  | CC[C@@H](C(=O)N[C@H](/C=C/C(=O)OC1CCCC1)C[C@@H]1CCNC1=O)n1cccc(NC(=O)c2cc(Cl)on2)c1=O [Compound 29, trans-(2′S,3″″S,4S)-4-(2′-{3″-[(5′″-Chloroisoxazole-3′″-carbonyl)amino]-2″-oxo-2″H-pyridin-1″-yl}butyrylamino)-5-(2″″-oxopyrroldin-3″″-yl)pent-2-enoic Acid Cyclopentyl Ester] | > 10 | > 10 | > 10 | 46 | 46 | 148000 | 79 |  |
| 24 | CCOC(=O)/C=C/[C@H](CCC(N)=O)NC(=O)[C@H](Cc1ccccc1)n1cccc(NC(=O)c2cc(Cl)on2)c1=O [Compound 30, trans-(2′S,4S)-6-Carbamoyl-4-(2′-{3″-[(5′″-chloroisoxazole-3′″-carbonyl)amino]-2″-oxo-2″H-pyridin-1″-yl}-3′-phenylpropionylamino)hex-2-enoic Acid Ethyl Ester] |  |  | > 10 |  |  | 134000 |  |  |
|  | CC[C@@H](C(=O)N[C@H](/C=C/C(=O)O)C[C@@H]1CCNC1=O)n1cccc(NC(=O)c2cc(C)on2)c1=O [Compound 35, trans-(2S,3″″S,4S)-4-(2′-{3″-[(5′″-Methylisoxazole-3′″-carbonyl)amino]-2″-oxo-2″H-pyridin-1″-yl}butyrylamino)-5-(2″″-oxopyrrolidin-3″″-yl)pent-2-enoic Acid] |  |  | > 10 |  |  | 220 | > 10000 |  |
| 9000 | CCOC(=O)/C=C/[C@H](CCC(N)=O)NC(=O)[C@@H]1CCc2ccc(NC(=O)OCc3ccccc3)c(=O)n21 [Compound 36, trans-(3′S,4S)-4-[(6′-Benzyloxycarbonylamino-5′-oxo-1′,2′,3′,5′-tetrahydroindolizine-3′-carbonyl)amino]-6-carbamoylhex-2-enoic Acid Ethyl Ester] |  |  | > 100 |  |  | 4540 |  |  |
|  | C#CC[C@@H](C(=O)N[C@H](/C=C/C(=O)O)C[C@@H]1CCNC1=O)n1cccc(NC(=O)c2cc(C)on2)c1=O [Compound 43, trans-(2′S,3′″″S,4S)-4-[2′-(3″-{[1′″-(5″″-Methylisoxazol-3″″-yl)methanoyl]amino}-2′″-oxo-2′″H-pyridin-1′″-yl)pent-4″-ynoylamino]-5-(2′″″-oxopyrrolidin-3′″″-yl)pent-2-enoic Acid] |  |  | > 10 |  |  | 382 | > 10000 |  |
